Calls of active or inactive are those of the source.
Key:
[1] = biological target: Potassium voltage-gated channel subfamily KQT member 2 (Rattus norvegicus, UniProt O88943); test: KCNQ2 channel activators, analog series, SAR follow-up, automated patch clamp, KCNQ2-CHO cells (AID 493113); format: functional
[2] = biological target: Lysine-specific demethylase 4C (Homo sapiens, UniProt Q9H3R0); test: GASC-1 (JMJD2C) histone demethylase inhibitors, dose response, biochemical, DELFIA europium, cherry-picked samples (AID 488835); format: functional
[3] = biological target: T1, Histone-lysine N-methyltransferase NSD2 (Homo sapiens, UniProt O96028); format: biochemical
T1 sequence (O96028 whole entry): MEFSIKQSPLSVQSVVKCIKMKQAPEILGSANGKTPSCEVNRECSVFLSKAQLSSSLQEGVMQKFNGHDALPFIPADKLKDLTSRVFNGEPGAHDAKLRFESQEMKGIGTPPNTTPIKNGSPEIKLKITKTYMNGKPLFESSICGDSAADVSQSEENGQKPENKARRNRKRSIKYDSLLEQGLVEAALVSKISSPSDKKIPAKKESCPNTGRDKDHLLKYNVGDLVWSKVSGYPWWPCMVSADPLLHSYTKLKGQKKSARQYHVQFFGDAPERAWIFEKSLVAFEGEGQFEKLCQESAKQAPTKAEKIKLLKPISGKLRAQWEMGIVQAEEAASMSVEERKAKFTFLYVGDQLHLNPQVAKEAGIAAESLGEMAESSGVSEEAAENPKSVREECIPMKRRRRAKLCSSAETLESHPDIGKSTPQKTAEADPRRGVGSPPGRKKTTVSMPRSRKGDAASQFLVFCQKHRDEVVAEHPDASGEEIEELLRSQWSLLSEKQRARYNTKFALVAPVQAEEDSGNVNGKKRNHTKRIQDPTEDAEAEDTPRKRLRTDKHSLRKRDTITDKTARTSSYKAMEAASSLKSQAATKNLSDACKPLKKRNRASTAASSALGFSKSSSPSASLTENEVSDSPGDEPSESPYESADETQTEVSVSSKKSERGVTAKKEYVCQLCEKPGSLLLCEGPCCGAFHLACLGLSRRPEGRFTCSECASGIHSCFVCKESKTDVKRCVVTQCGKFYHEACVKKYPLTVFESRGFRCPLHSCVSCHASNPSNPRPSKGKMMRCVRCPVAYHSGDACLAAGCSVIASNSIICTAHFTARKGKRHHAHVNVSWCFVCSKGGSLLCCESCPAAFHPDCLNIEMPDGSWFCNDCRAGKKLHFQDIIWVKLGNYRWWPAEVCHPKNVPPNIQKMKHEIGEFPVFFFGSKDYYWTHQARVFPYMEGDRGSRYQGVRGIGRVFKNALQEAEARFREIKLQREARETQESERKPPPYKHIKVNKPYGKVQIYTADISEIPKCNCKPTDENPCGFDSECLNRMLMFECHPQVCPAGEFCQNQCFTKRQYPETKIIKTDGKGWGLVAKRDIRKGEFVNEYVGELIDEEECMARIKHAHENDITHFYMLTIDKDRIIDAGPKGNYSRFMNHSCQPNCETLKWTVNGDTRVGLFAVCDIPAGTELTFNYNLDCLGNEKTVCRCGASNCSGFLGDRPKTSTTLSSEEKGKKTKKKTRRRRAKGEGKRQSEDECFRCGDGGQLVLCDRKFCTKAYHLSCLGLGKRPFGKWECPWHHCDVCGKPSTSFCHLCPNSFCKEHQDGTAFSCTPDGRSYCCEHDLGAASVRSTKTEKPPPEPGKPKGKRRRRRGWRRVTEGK

[4] = biological target: T2, Replicative DNA helicase DnaB (Mycobacterium tuberculosis, UniProt P9WMR3); test: DnaB intein splicing inhibitors, dose response, biochemical, cell-free fluorescence (AID 449749); format: functional
T2 sequence (P9WMR3 whole entry): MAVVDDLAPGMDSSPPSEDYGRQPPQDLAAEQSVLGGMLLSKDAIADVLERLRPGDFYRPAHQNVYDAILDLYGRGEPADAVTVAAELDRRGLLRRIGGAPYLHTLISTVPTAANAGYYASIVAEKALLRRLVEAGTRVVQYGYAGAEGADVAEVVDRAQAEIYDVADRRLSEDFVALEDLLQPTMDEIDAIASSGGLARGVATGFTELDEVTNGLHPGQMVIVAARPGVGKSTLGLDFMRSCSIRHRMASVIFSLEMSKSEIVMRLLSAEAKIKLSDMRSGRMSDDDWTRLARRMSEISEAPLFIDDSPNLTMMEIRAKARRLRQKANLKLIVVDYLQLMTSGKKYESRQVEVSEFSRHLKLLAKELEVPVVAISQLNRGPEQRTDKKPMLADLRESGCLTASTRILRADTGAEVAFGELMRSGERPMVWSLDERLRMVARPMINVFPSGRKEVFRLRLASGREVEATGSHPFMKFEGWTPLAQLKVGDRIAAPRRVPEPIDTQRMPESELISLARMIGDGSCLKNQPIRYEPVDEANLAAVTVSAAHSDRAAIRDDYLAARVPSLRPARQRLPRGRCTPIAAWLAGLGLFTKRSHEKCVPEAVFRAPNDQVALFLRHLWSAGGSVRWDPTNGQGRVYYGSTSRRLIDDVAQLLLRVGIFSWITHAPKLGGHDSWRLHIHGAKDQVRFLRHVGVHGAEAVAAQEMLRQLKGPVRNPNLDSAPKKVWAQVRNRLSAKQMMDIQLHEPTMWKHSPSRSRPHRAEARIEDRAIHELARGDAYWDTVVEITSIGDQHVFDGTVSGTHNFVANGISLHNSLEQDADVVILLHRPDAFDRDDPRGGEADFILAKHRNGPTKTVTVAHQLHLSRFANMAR

[5] = biological target: T3, Mannose-6-phosphate isomerase (Homo sapiens, UniProt P34949); test: human PMI inhibitors, high substrate, primary screen, biochemical, fluorescence intensity, high mannose 6-phosphate (AID 1220)
T3 sequence (P34949 whole entry): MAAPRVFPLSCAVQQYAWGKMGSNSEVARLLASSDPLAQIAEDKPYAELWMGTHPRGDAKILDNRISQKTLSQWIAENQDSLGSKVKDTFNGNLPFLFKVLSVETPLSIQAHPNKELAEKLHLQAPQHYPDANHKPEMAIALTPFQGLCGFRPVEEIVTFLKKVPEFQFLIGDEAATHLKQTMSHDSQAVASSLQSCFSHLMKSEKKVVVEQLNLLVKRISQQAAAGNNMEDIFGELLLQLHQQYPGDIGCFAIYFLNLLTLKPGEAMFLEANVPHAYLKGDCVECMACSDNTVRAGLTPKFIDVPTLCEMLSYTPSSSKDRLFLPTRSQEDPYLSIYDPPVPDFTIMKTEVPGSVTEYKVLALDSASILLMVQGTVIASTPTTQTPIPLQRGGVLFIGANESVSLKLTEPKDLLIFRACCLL

Protein RecA = biological target: T4, Protein RecA (Mycobacterium tuberculosis, UniProt P9WHJ3); test: Fluorescence Cell-Free Homogeneous Dose Retest to Identify Inhibitors of RecA-Intein Splicing Activity. [Related pubchem assays (depositor defined):AID2097, AID2223, AID489010, AID492950]; format: functional
T4 sequence (P9WHJ3 whole entry): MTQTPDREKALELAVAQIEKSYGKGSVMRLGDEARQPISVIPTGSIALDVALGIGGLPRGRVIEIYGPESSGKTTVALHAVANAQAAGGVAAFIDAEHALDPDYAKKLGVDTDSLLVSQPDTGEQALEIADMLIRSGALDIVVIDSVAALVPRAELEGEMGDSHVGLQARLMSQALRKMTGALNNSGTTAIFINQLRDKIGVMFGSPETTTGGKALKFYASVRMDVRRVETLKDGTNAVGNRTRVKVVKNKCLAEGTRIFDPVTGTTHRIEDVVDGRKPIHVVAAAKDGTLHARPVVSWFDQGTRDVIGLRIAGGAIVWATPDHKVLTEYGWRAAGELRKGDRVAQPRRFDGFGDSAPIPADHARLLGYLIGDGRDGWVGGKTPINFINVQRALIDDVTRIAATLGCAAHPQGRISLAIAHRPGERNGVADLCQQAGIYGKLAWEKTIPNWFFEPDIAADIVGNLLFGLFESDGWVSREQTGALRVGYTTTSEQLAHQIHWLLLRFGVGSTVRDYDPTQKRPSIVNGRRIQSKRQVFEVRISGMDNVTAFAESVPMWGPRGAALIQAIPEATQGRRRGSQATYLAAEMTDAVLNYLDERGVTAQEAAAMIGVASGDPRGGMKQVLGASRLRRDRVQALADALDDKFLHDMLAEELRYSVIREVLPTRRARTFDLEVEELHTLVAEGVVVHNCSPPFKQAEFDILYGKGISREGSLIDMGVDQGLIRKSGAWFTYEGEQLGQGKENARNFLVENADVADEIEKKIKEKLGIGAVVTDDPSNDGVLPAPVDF

[6] = biological target: T5, Apoptotic protease-activating factor 1 (Homo sapiens, UniProt O14727); test: activation of Apaf-1 mediated apoptosis – fluorescent, uHTS hits, dose response (AID 588554); format: functional
T5 sequence (O14727 whole entry): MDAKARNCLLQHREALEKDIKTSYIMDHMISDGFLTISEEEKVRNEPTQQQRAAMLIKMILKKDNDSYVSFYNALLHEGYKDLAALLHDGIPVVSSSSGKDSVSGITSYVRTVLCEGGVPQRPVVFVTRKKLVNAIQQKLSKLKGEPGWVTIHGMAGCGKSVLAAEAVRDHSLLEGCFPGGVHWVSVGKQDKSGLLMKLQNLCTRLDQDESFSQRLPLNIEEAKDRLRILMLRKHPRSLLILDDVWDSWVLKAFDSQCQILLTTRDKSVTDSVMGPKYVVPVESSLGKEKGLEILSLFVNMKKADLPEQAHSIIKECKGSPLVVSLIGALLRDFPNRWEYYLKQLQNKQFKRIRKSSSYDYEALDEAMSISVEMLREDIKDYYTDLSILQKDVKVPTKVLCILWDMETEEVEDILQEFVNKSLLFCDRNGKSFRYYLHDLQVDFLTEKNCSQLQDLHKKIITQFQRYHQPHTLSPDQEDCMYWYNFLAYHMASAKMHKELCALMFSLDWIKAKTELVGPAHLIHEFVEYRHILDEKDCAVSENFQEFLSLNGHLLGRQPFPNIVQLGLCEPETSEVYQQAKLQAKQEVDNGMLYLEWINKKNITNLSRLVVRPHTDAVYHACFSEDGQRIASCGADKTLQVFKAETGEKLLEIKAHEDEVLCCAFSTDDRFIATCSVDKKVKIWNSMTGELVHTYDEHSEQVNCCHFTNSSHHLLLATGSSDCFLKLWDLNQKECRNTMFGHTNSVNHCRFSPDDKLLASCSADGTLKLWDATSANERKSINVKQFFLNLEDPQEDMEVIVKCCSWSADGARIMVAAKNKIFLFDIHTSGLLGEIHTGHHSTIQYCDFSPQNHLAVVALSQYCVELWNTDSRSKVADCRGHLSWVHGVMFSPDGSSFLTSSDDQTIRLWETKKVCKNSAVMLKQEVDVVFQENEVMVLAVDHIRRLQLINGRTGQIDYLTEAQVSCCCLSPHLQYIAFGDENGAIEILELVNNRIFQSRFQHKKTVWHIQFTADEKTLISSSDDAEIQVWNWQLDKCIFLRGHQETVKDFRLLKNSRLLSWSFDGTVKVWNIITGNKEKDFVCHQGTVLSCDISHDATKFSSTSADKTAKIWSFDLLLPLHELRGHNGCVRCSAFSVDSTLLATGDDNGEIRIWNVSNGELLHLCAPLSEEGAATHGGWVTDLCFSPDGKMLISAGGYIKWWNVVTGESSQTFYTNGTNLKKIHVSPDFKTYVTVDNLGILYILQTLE

Potassium voltage-gated channel subfamily KQT member 2, sequence (O88943 whole entry): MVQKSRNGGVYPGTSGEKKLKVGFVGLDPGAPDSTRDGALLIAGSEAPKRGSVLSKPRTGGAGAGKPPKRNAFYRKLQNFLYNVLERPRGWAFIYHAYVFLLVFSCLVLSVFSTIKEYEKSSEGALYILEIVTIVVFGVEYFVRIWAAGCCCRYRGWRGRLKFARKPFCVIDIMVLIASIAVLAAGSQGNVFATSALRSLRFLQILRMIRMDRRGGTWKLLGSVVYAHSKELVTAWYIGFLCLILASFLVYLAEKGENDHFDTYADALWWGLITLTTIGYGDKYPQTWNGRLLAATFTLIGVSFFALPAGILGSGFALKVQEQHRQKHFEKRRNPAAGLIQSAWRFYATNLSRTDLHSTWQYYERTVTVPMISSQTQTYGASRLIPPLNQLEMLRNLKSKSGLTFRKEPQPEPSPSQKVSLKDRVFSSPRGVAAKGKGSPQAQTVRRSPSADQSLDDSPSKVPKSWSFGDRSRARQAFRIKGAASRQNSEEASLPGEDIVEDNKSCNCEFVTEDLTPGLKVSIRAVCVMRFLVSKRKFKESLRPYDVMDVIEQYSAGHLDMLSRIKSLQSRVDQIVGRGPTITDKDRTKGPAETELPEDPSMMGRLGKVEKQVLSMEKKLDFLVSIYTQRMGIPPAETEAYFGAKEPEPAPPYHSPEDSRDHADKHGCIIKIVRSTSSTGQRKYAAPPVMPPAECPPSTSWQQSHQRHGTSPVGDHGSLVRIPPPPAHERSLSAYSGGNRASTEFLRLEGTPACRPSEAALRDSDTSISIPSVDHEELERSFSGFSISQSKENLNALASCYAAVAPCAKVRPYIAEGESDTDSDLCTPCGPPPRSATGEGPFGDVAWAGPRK
Lysine-specific demethylase 4C, sequence (Q9H3R0 whole entry): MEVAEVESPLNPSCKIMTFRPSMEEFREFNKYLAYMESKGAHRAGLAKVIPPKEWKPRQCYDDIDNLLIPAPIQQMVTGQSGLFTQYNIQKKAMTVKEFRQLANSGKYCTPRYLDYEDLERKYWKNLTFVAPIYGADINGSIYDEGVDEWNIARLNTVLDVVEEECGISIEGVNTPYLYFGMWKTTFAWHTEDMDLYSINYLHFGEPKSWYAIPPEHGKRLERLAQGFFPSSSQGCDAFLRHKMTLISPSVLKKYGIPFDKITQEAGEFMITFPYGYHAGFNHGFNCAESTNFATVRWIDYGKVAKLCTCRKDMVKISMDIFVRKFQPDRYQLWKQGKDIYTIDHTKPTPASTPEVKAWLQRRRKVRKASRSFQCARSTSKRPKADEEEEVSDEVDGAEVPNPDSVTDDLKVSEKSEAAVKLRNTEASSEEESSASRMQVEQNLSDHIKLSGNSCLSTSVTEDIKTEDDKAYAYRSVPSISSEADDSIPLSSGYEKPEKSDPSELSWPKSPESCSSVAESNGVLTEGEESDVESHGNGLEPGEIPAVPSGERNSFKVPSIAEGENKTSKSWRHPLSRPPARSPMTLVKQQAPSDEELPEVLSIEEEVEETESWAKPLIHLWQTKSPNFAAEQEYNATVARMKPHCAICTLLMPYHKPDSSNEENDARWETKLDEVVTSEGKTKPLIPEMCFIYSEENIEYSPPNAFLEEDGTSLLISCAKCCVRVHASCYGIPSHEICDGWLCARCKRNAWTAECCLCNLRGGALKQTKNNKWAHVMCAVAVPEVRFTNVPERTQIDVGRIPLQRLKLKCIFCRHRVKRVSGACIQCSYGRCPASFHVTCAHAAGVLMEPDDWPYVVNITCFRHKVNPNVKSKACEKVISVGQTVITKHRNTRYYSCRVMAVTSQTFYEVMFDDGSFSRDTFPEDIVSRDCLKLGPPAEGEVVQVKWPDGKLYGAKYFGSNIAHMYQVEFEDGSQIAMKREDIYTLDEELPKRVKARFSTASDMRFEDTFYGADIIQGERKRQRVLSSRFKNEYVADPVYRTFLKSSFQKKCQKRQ

Cc1cc(C)c(NC(=O)CCC2CCCC2)c(C)c1
EC50 [1]: 0.49 µM (active)

Cc1nnc(N/N=C\c2ccc(-c3ccccc3[N+](=O)[O-])o2)n1N
AC50 [2]: 7.3 µM (active)
AC50 [3]: 10.3 µM (active)
AC50 [4]: 58.9 µM (active)
IC50 [5]: > 50 µM (not active)
EC50 (Protein RecA): 23.5 µM (active)

O=C1C2(CCCC13COC(c1ccc(O)cc1)OC3)COC(c1ccc(O)cc1)OC2 (configuration not stated)
EC50 [6]: 9.2 µM (active)
